Test results reported in the supplement of paper PMC11061612.

What was measured:
Test in all cases: Bliss excess, mean over the matrix (fraction); higher = more synergy
[1] = test system: RERF-LC-KJ (Lung Adenocarcinoma)
Procedure, shortened: (§1)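 Cell lines grown in DMEM/F12 or RPMI with 10% FBS were plated in 1536-well plates and held 24 hours at 37°C, 5% CO2 before 72 hours of exposure to two-drug dose matrices, with DMSO typically at 0.2%. CellTiter-Glo 2.0 luminescence gave viability, which was converted to inhibition. Vehicle wells were set to 0 and blank wells to 1. Combination Emax is the second-highest inhibition in the matrix, and Bliss excess is the observed combination effect minus the expected EA + EB − EA·EB, where EA and EB are the single-agent effects.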

[2] = test system: NCI-H1155 (Non-Small Cell Lung Carcinoma)
Procedure, shortened: as §1

[3] = test system: BALL-1 (B-Lymphoblastic Leukemia)
Procedure, shortened: as §1

[4] = test system: LAMA-84 (Chronic Myelogenous Leukemia)
Procedure, shortened: as §1

[5] = test system: OV-90 (Ovarian Carcinoma)
Procedure, shortened: as §1

[6] = test system: LOUCY (T-Lymphoblastic Leukemia)
Procedure, shortened: as §1

[7] = test system: NCI-H196 (Small Cell Lung Carcinoma)
Procedure, shortened: as §1

[8] = test system: PANC-02-03 (Pancreatic Carcinoma)
Procedure, shortened: as §1

[9] = test system: EB-3 (Burkitt's Lymphoma)
Procedure, shortened: as §1

[10] = test system: Calu-6 (Non-Small Cell Lung Carcinoma)
Procedure, shortened: as §1

[11] = test system: Becker (Low Grade Glioma)
Procedure, shortened: as §1

[12] = test system: NCI-H1623 (Lung Adenocarcinoma)
Procedure, shortened: as §1

[13] = test system: RMG-I (Ovarian Carcinoma)
Procedure, shortened: as §1

[14] = test system: HuO-3N1 (Osteosarcoma)
Procedure, shortened: as §1

[15] = test system: SNU-175 (Colorectal Carcinoma)
Procedure, shortened: as §1

[16] = test system: AN3-CA (Endometrial Carcinoma)
Procedure, shortened: as §1

[17] = test system: SW684 (Other Solid Carcinomas)
Procedure, shortened: as §1

[18] = test system: CML-T1 (Chronic Myelogenous Leukemia)
Procedure, shortened: as §1

[19] = test system: NCI-H1755 (Lung Adenocarcinoma)
Procedure, shortened: as §1

[20] = test system: Caov-3 (Ovarian Carcinoma)
Procedure, shortened: as §1

Row | SMILES | Bliss excess [1] | Bliss excess [2] | Bliss excess [3] | Bliss excess [4] | Bliss excess [5] | Bliss excess [6] | Bliss excess [7] | Bliss excess [8] | Bliss excess [9] | Bliss excess [10] | Bliss excess [11] | Bliss excess [12] | Bliss excess [13] | Bliss excess [14] | Bliss excess [15] | Bliss excess [16] | Bliss excess [17] | Bliss excess [18] | Bliss excess [19] | Bliss excess [20]
1 | COc1nnc2ccc(N3CCC(c4ccc(OCCN5CCN(C)C(=O)[C@H]5C)cc4)CC3)nn12 [AZD5153] + Cc1c2c(nn1C)CSCc1cc(n(C)n1)CSc1cc(c3ccccc3c1)OCCCc1c(C(=O)O)n(C)c3c-2c(Cl)ccc13 [AZD5991] (first compound max 1 µM, 7x7, partner max 1 µM) | 0.006 | -0.0091 | -0.0409 | 0.005 | -0.0389 | 0.0187 | 0.0074 | -0.0493 | -0.0048 | -0.131 | -0.0815 | 0.049 | -0.0553 | -0.0118 | 0.0113 | -0.0205 | -0.108 | 0.0065 | -0.0785 | 
2 | CN(C)CCCOc1ccc(-c2ccc3ncc4c(c3c2)n(C2CCOCC2)c(=O)n4C)cn1 [AZD0156] + O=C(c1cc(Cc2n[nH]c(=O)c3ccccc23)ccc1F)N1CCN(C(=O)C2CC2)CC1 [Olaparib] (first compound max 3 µM, partner max 3 µM) | -0.0459 | 0.103 | 0.158 | 0.167 | 0.035 | 0.125 | -0.0505 | 0.0278 | 0.0234 | 0.0096 | -0.0359 | 0.0126 | -0.0428 | -0.0328 | 0.105 | 0.0263 | -0.0388 | 0.178 | -0.0055 | 
3 | CC(=O)c1c(C)c2cnc(Nc3ccc(N4CCNCC4)cn3)nc2n(C2CCCC2)c1=O [Palbociclib] + Cc1c2c(nn1C)CSCc1cc(n(C)n1)CSc1cc(c3ccccc3c1)OCCCc1c(C(=O)O)n(C)c3c-2c(Cl)ccc13 [AZD5991] (first compound max 10 µM, 7x7, partner max 1 µM) | -0.0723 | -0.059 | -0.0683 | 0.0056 | -0.0568 | 0.0154 | -0.0784 | -0.0522 | -0.0271 | -0.0227 | 0.0059 | -0.0321 | -0.061 | -0.0972 | -0.0496 | -0.0305 | -0.0906 | -0.0233 | -0.0188 | 
4 | Cc1c2c(nn1C)CSCc1cc(n(C)n1)CSc1cc(c3ccccc3c1)OCCCc1c(C(=O)O)n(C)c3c-2c(Cl)ccc13 [AZD5991] + Cn1cnc2c(F)c(Nc3ccc(Br)cc3Cl)c(C(=O)NOCCO)cc21 [Selumetinib] (first compound max 1 µM, 7x7, partner max 3 µM) | 0.0466 | 0.0008 | -0.0064 | 0.102 | -0.0143 | 0.0129 | -0.0374 | -0.003 | -0.0424 | 0.0572 | -0.0092 | 0.0184 | -0.0027 | -0.0008 |  | 0.0158 | -0.0091 | 0.0516 | 0.0427 | 0.0536
5 | COc1nnc2ccc(N3CCC(c4ccc(OCCN5CCN(C)C(=O)[C@H]5C)cc4)CC3)nn12 [AZD5153] + Cn1cnc2c(F)c(Nc3ccc(Br)cc3Cl)c(C(=O)NOCCO)cc21 [Selumetinib] (first compound max 1 µM, 7x7, partner max 10 µM) | -0.113 | -0.035 | -0.0274 | 0.0757 | -0.0203 | 0.0484 | -0.0296 | 0.0742 | -0.0591 | 0.0533 | 0.0472 | 0.0294 | -0.0486 | -0.0026 | -0.0007 | -0.0484 | -0.0187 | -0.14 | 0.0053 | 
6 | COc1nnc2ccc(N3CCC(c4ccc(OCCN5CCN(C)C(=O)[C@H]5C)cc4)CC3)nn12 [AZD5153] + C[C@@H]1COCCN1C2=NC(=NC(=C2)C3(CC3)[S@](=N)(=O)C)C4=C5C=CNC5=NC=C4 [AZD6738] (first compound max 1 µM, 7x7, partner max 10 µM) | 0.0393 | 0.0406 | 0.0119 | 0.0202 | -0.0249 | -0.0232 | 0.036 | -0.0366 | -0.104 | -0.0567 | 0.0137 | -0.0247 | -0.0261 | 0.0085 | 0.0289 | -0.0311 | -0.042 | -0.0011 | 0.0198 | 
7 | COc1nnc2ccc(N3CCC(c4ccc(OCCN5CCN(C)C(=O)[C@H]5C)cc4)CC3)nn12 [AZD5153] + CC1(C)CCC(CN2CCN(c3ccc(C(=O)NS(=O)(=O)c4ccc(NCC5CCOCC5)c([N+](=O)[O-])c4)c(Oc4cnc5[nH]ccc5c4)c3)CC2)=C(c2ccc(Cl)cc2)C1 [Venetoclax] (first compound max 1 µM, 7x7, partner max 1 µM) | -0.0146 | 0.0223 | -0.0141 | -0.0361 | -0.085 | 0.0241 | -0.0351 | -0.0263 | 0.0042 | -0.0949 | -0.0487 | -0.0448 | -0.0456 | -0.0576 | -0.0392 | -0.0347 | -0.0705 | 0.0479 | -0.0416 | 
